Assay results from patent US9771334B2, “Triketone compound and preparation method and use thereof” (SHANDONG CYNDA CHEMICAL CO., LTD., priority 2013, dated 2017).

Experiments:
Assay in all cases: Herbicidal activity, pot culture method (primary and secondary screening test)
Assay type in all cases: in vivo
Conditions in all cases: primary screening, pot culture, 150 g/ha, sprayed at 3-leaf stage, result 15 days later
abutilon theophrasti = tested on: abutilon theophrasti
Source text: (§1) This test example is for describing the herbicidal activity inhibition ratio (%) (the dose is 150 g/ha) of the compound with a structure shown in Formula (I). Primary screening test (pot culture method): The test targets are abutilon theophrasti, digitaria sanguinalis, amaranthus retroflexus, echinochloa crusgalli, eclipta prostrata and setaria viridis. Take flowerpots with an inner diameter of 6 cm, put composite soil (vegetable garden soil:seedling matrix=1:2, v/v) into them till 3⁄4 of flowerpot height, directly sow the above six weed targets (budding rate>85%), cover them with 0.2 cm thick soil, and keep them for future use when the weeds grow to 3-leaf stage. Each compound is dissolved in N,N-dimethylformamide at a dose of 150 g/ha and diluted with distilled water into a 0.2 g/L solution. The solution is sprayed through an automatic spray tower. After the solution on weed leaves is aired dry, the flowerpots are moved into a greenhouse for cultivation. The result is investigated 15 days later. By the same method adopted in primary screening test, a secondary screening test is done on some typical compounds, such as: 5, 6, 20, 21, 23, 34, 47, 65, 66, 70 and 91 at a reduced dose, and the test result is compared with mesotrione which is commercially available and has a good herbicidal effect. The test method is same as that adopted in primary screening test. Mesotrione is bought from Hubei […] Chemical Co., Ltd.

echinochloa crusgalli = tested on: echinochloa crusgalli
Source text: as §1

digitaria sanguinalis = tested on: digitaria sanguinalis
Source text: as §1

setaria viridis = tested on: setaria viridis
Source text: as §1

amaranthus retroflexus = tested on: amaranthus retroflexus
Source text: as §1

eclipta prostrata = tested on: eclipta prostrata
Source text: as §1

| SMILES | herbicidal activity inhibition ratio (%), Abutilon theophrasti (abutilon theophrasti) [%] | herbicidal activity inhibition ratio (%), Echinochloa crusgalli (echinochloa crusgalli) [%] | herbicidal activity inhibition ratio (%), Digitaria sanguinalis (digitaria sanguinalis) [%] | herbicidal activity inhibition ratio (%), Setaria viridis (setaria viridis) [%] | herbicidal activity inhibition ratio (%), Amaranthus retroflexus (amaranthus retroflexus) [%] | herbicidal activity inhibition ratio (%), Eclipta prostrata (eclipta prostrata) [%] |
| --- | --- | --- | --- | --- | --- | --- |
| Cn1c(=O)n(-c2ccc(OC(F)(F)F)cc2)c(=O)c2cc(C(=O)C3=C(O)CCCC3=O)ccc21 [Compound 50] | 50 | 78 | 60 | 50 | 95 | 80 |
| Cn1c(=O)n(-c2cccc(C(F)(F)F)c2)c(=O)c2cc(C(=O)C3=C(O)CC(C)(C)CC3=O)ccc21 [Compound 51] | 93 | 50 | 83 | 40 | 90 | 80 |
| Cn1c(=O)n(-c2cccc(C(F)(F)F)c2)c(=O)c2cc(C(=O)C3=C(O)CCCC3=O)ccc21 [Compound 52] | 55 | 85 | 50 | 80 | 98 | 75 |
| Cn1c(=O)n(-c2ccc([N+](=O)[O-])cc2)c(=O)c2cc(C(=O)C3=C(O)CC(C)(C)CC3=O)ccc21 [Compound 53] | 100 | 0 | 25 | 80 | 80 | 80 |
| Cc1cccc(C)c1-n1c(=O)c2cc(C(=O)C3=C(O)C(C)(C)CCC3=O)ccc2n(C)c1=O [Compound 54] | 100 | 95 | 60 | 45 | 98 | 80 |
| COc1cccc(-n2c(=O)c3cc(C(=O)C4=C(O)CCCC4=O)ccc3n(C)c2=O)c1 [Compound 55] | 100 | 93 | 60 | 25 | 95 | 68 |
| COc1cccc(-n2c(=O)c3cc(C(=O)C4=C(O)CC(C)(C)CC4=O)ccc3n(C)c2=O)c1 [Compound 56] | 55 | 60 | 55 | 60 | 80 | 75 |
| COc1ccc(-n2c(=O)c3cc(C(=O)C4=C(O)CCCC4=O)ccc3n(C)c2=O)cc1 [Compound 57] | 60 | 85 | 75 | 50 | 95 | 80 |
| COc1ccc(-n2c(=O)c3cc(C(=O)C4=C(O)CC(C)(C)CC4=O)ccc3n(C)c2=O)cc1 [Compound 58] | 100 | 80 | 88 | 60 | 90 | 68 |
| Cc1ccccc1-n1c(=O)[nH]c2ccc(C(=O)C3=C(O)CC(C)(C)CC3=O)cc2c1=O [Compound 59] | 0 | 0 | 0 | 10 | 30 | 25 |
| Cn1c(=O)n(-c2cc(C(F)(F)F)ccc2Cl)c(=O)c2cc(C(=O)C3=C(O)CCCC3=O)ccc21 [Compound 60] | 100 | 65 | 40 | 80 | 70 | 0 |
| Cn1c(=O)n(-c2cc(C(F)(F)F)ccc2Cl)c(=O)c2cc(C(=O)C3=C(O)CC(C)(C)CC3=O)ccc21 [Compound 61] | 65 | 0 | 25 | 10 | 0 | 20 |
| Cn1c(=O)n(-c2ccc(Cl)cc2Cl)c(=O)c2cc(C(=O)C3=C(O)CCCC3=O)ccc21 [Compound 62] | 100 | 83 | 65 | 93 | 88 | 20 |
| Cn1c(=O)n(-c2ccc(Cl)cc2Cl)c(=O)c2cc(C(=O)C3=C(O)CC(C)(C)CC3=O)ccc21 [Compound 63] | 100 | 25 | 20 | 30 | 30 | 50 |
| CC1CC(=O)C(C(=O)c2ccc3c(c2)c(=O)n(-c2ccc(Cl)cc2Cl)c(=O)n3C)=C(O)C1 (stereo not drawn) [Compound 64] | 95 | 90 | 60 | 93 | 80 | 0 |
| Cc1cc(C)c(-n2c(=O)c3cc(C(=O)C4=C(O)CCCC4=O)ccc3n(C)c2=O)c(C)c1 [Compound 67] | 95 | 83 | 80 | 80 | 80 | 0 |
| Cc1ccccc1-n1c(=O)[nH]c2ccc(C(=O)C3=C(O)CCCC3=O)cc2c1=O [Compound 68] | 15 | 0 | 0 | 10 | 0 | 0 |
| CCn1c(=O)n(-c2ccccc2C)c(=O)c2cc(C(=O)C3=C(O)CC(C)(C)CC3=O)ccc21 [Compound 69] | 100 | 90 | 30 | 85 | 95 | 88 |
| CCCn1c(=O)n(-c2ccccc2C)c(=O)c2cc(C(=O)C3=C(O)CCCC3=O)ccc21 [Compound 71] | 95 | 80 | 25 | 98 | 85 | 98 |
| CCCn1c(=O)n(-c2ccccc2C)c(=O)c2cc(C(=O)C3=C(O)CC(C)(C)CC3=O)ccc21 [Compound 72] | 100 | 30 | 20 | 30 | 20 | 60 |
| CCCCn1c(=O)n(-c2ccccc2C)c(=O)c2cc(C(=O)C3=C(O)CCCC3=O)ccc21 [Compound 73] | 50 | 0 | 0 | 10 | 30 | 0 |
